# According to PubChem BioAssay (NCI):
#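 Cells were grown in 96-well plates and exposed to each compound for 48 hours at five concentrations; endpoints were interpolated linearly between bracketing concentrations, or set to the highest concentration if not reached. The concentration for 50% growth inhibition is given as GI50. At the TGI there is no net growth.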
# How the values were obtained:
# Assay in all cases: NCI tumour cell line growth inhibition, 48 h
# [1] = test system: A498 renal
# [2] = test system: A549 NSCLC
# [3] = test system: ACHN renal
# [4] = test system: BT-549 breast
# [5] = test system: CAKI-1 renal
# [6] = test system: CCRF-CEM leukemia
# [7] = test system: COLO 205 colon
# [8] = test system: DU-145 prostate
# [9] = test system: EKVX NSCLC
# [10] = test system: HCC-2998 colon
# [11] = test system: HCT-116 colon
# [12] = test system: HCT-15 colon
# [13] = test system: HL-60(TB) leukemia
# [14] = test system: HOP-62 NSCLC
# [15] = test system: HOP-92 NSCLC
# [16] = test system: HS 578T breast
# [17] = test system: HT29 colon
# [18] = test system: IGROV1 ovarian
# [19] = test system: K-562 leukemia
# [20] = test system: KM12 colon
# [21] = test system: LOX IMVI melanoma
# [22] = test system: M14 melanoma
# [23] = test system: MALME-3M melanoma
# [24] = test system: MCF7 breast
# [25] = test system: MDA-MB-231 breast
# [26] = test system: MDA-MB-435
# [27] = test system: MOLT-4 leukemia
# [28] = test system: NCI-H226 lung
# [29] = test system: NCI-H23 lung
# [30] = test system: NCI-H460 lung
# [31] = test system: NCI-H522 lung
# [32] = test system: NCI/ADR-RES ovarian
# [33] = test system: OVCAR-3 ovarian
# [34] = test system: OVCAR-4 ovarian
# [35] = test system: OVCAR-5 ovarian
# [36] = test system: PC-3 prostate
# [37] = test system: RPMI-8226 leukemia
# [38] = test system: RXF 393 renal
# [39] = test system: SF-268 CNS
# [40] = test system: SF-295 CNS
# [41] = test system: SF-539 CNS
# [42] = test system: SK-MEL-2 melanoma
# [43] = test system: SK-MEL-28 melanoma
# [44] = test system: SK-MEL-5 melanoma
# [45] = test system: SK-OV-3 ovarian
# [46] = test system: SN12C renal
# [47] = test system: SNB-19 CNS
# [48] = test system: SNB-75 CNS
# [49] = test system: SR leukemia
# [50] = test system: SW-620 colon
# [51] = test system: T-47D breast
# [52] = test system: TK-10 renal
# [53] = test system: U251 CNS
# [54] = test system: UACC-257 melanoma
# [55] = test system: UACC-62 melanoma
# [56] = test system: UO-31 renal
compound,measurement,setting,value
COc1cc2c(cc1-c1c(C)noc1C)cc(C)c(=O)n2Cc1ccccn1,GI50,[1],0.864 µM
same,TGI,[1],5.12 µM
same,GI50,[2],1.76 µM
same,TGI,[2],> 100 µM
same,GI50,[3],1.45 µM
same,TGI,[3],> 100 µM
same,GI50,[4],3.89 µM
same,TGI,[4],> 100 µM
same,GI50,[5],0.284 µM
same,TGI,[5],23.2 µM
same,GI50,[6],1.57 µM
same,TGI,[6],> 100 µM
same,GI50,[7],0.566 µM
same,TGI,[7],22.2 µM
same,GI50,[8],12.6 µM
same,TGI,[8],> 100 µM
same,GI50,[9],1.67 µM
same,TGI,[9],> 100 µM
same,GI50,[10],1.79 µM
same,TGI,[10],17.3 µM
same,GI50,[11],1.91 µM
same,TGI,[11],> 100 µM
same,GI50,[12],0.694 µM
same,TGI,[12],> 100 µM
same,GI50,[13],0.301 µM
same,TGI,[13],3.77 µM
same,GI50,[14],0.489 µM
same,TGI,[14],> 100 µM
same,GI50,[15],0.473 µM
same,TGI,[15],25.3 µM
same,GI50,[16],0.318 µM
same,TGI,[16],13.3 µM
same,GI50,[17],0.469 µM
same,TGI,[17],> 100 µM
same,GI50,[18],1.2 µM
same,TGI,[18],> 100 µM
same,GI50,[19],0.963 µM
same,TGI,[19],> 100 µM
same,GI50,[20],7.77 µM
same,TGI,[20],> 100 µM
same,GI50,[21],0.884 µM
same,TGI,[21],10.8 µM
same,GI50,[22],0.797 µM
same,TGI,[22],> 100 µM
same,GI50,[23],1.14 µM
same,TGI,[23],7.45 µM
same,GI50,[24],0.333 µM
same,TGI,[24],> 100 µM
same,GI50,[25],0.809 µM
same,TGI,[25],> 100 µM
same,GI50,[26],1.25 µM
same,TGI,[26],4.33 µM
same,GI50,[27],3.13 µM
same,TGI,[27],> 100 µM
same,GI50,[28],1.59 µM
same,TGI,[28],> 100 µM
same,GI50,[29],3.4 µM
same,TGI,[29],> 100 µM
same,GI50,[30],6 µM
same,TGI,[30],> 100 µM
same,GI50,[31],0.542 µM
same,TGI,[31],10.9 µM
same,GI50,[32],1.34 µM
same,TGI,[32],> 100 µM
same,GI50,[33],1.8 µM
same,TGI,[33],11.2 µM
same,GI50,[34],1.33 µM
same,TGI,[34],> 100 µM
same,GI50,[35],2.78 µM
same,TGI,[35],> 100 µM
same,GI50,[36],3.47 µM
same,TGI,[36],> 100 µM
same,GI50,[37],0.307 µM
same,TGI,[37],3.86 µM
same,GI50,[38],0.498 µM
same,TGI,[38],5 µM
same,GI50,[39],4.22 µM
same,TGI,[39],> 100 µM
same,GI50,[40],2.3 µM
same,TGI,[40],> 100 µM
same,GI50,[41],0.983 µM
same,TGI,[41],13.2 µM
same,GI50,[42],2.46 µM
same,TGI,[42],> 100 µM
same,GI50,[43],3.33 µM
same,TGI,[43],> 100 µM
same,GI50,[44],1.99 µM
same,TGI,[44],10.7 µM
same,GI50,[45],0.554 µM
same,TGI,[45],7.82 µM
same,GI50,[46],2.91 µM
same,TGI,[46],> 100 µM
same,GI50,[47],1.86 µM
same,TGI,[47],> 100 µM
same,GI50,[48],0.0306 µM
same,TGI,[48],0.456 µM
same,GI50,[49],0.709 µM
same,TGI,[49],> 100 µM
same,GI50,[50],2.59 µM
same,TGI,[50],> 100 µM
same,GI50,[51],0.456 µM
same,TGI,[51],> 100 µM
same,GI50,[52],0.34 µM
same,TGI,[52],18.3 µM
same,GI50,[53],4.43 µM
same,TGI,[53],> 100 µM
same,GI50,[54],2.18 µM
same,TGI,[54],> 100 µM
same,GI50,[55],0.407 µM
same,TGI,[55],15 µM
same,GI50,[56],0.376 µM
same,TGI,[56],> 100 µM
